From patent publication US4961920A, “Phototherapeutic monovinyl and divinyl ether-linked dimers” (Luminis Pty, Ltd., priority 1988, dated 1990)

Tested on: Lewis lung carcinoma cells
Test: Photosensitization of tumors: days for Lewis lung carcinoma to regrow to palpable tumor in mice after red-light irradiation
Assay type: in vivo
Conditions: 25-60 mg/kg, i.p. or i.v.; red light 24 h after dosing; groups of 10 C57BL mice; end point 5 out of 10 mice regrow palpable tumor
Text: Lewis lung carcinoma cells (Dr. L. Dent, Flinders Medical Centre), are transplanted into the back of C57BL mice by subcutaneous injection of approximately 10^6 cells per mouse. […] Twenty-four hours later mice are anesthetized, the fur over the tumor shaved, and a 1 cm diameter area over the tumor is irradiated with red light as specified. Mice are palpated daily for recurrence of tumor. The end point is the number of days for 5 out of 10 mice to regrow palpable tumor.
Light can be supplied by a gold metal vapor laser (Quentron Optica Pty. Ltd.) with wavelength 627.8 nm. This laser generates average light intensities of 400 mW coupled to a 400 um quartz fiber and can be positioned to create a 1 cm diameter spot.
Data were recorded as "TC50 "--the first time (in days) after treatment for the tumor to regrow to a palpable stage (as shown in Table 1).

Substance | TC50 (first time after treatment for the tumor to regrow to a palpable stage)
Divinyldeuteroporphyrin Ether-linked Dimer [(1) where both R = vinyl] | 7 days
Monohydroxyethyl Monovinyl Deuteroporphyrin Ether-linked Dimer | 3 days
